Results as given in PMC3845904 (Chemical research in toxicology, 2009).
Read-outs that look alike come from different tables or passages of the source.

How the values were obtained:
human P450 1B1 [1] = target: T1, human P450 1B1 (Homo sapiens, UniProt Q16678); test: Inhibition of 7-ethoxyresorufin O-deethylation; conditions: results not presented
T1 sequence (Q16678 1-543): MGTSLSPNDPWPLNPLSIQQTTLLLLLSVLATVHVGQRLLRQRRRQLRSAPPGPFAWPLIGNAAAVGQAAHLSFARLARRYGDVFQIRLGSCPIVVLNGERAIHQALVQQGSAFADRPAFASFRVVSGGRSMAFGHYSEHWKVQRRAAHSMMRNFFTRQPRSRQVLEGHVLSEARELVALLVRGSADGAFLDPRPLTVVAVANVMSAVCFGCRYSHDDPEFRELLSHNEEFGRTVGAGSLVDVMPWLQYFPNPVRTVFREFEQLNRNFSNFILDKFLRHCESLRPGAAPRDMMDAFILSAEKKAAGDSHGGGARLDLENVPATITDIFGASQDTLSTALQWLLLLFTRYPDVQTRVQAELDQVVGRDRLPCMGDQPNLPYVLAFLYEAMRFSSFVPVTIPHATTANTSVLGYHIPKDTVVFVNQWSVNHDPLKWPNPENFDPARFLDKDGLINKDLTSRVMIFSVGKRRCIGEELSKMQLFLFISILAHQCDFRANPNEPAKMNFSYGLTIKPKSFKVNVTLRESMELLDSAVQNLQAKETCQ

human P450 1B1 [2] = target: T1, human P450 1B1; test: biochemical
human P450 1B1 [3] = target: T1, human P450 1B1; test: Spectral binding titration; conditions: purified P450 1B1 1.0 μM, ND = not detected at 100 μM
human P450 1B1 [4] = target: T1, human P450 1B1; conditions: pH 7.4
human P450 1B1 [5] = target: T1, human P450 1B1

manner of inhibition of P450 1B1 EROD activity (human P450 1B1 [1]) | IC50 (human P450 1B1 [2]) [nM] | Reverse Type I spectra ΔAmax/Ks (magnitude of spectral binding) (human P450 1B1 [3]) | Reverse Type I spectra ΔAmax (human P450 1B1 [3]; means ± SEs) | Kd (human P450 1B1 [4]) [nM] | IC50 (human P450 1B1 [5]) [nM] | SMILES
mechanism-based manner | 1800 ± 200 | 0.0062 | 0.074 ± 0.008 |  |  | CC#Cc1ccc(-c2ccccc2)cc1 [4PB, 4-(1-propynyl)biphenyl]
 |  |  |  | 54000 ± 6200 | 1500 ± 300 | CCC#Cc1ccc(-c2ccccc2)cc1 [4BuB, 4-butinylbiphenyl]
